The nature of data set [1]: NOVARTIS: Cytotoxicity against human hepatocellular carcinoma cell line (Huh7). The class given is toxicity, cell-based, Huh-7. The conditions noted are these: Huh7 cells (hepatocellular carcinoma cell line).
Data set [2] concerns Plasmodium falciparum. As to the kind of experiment: NOVARTIS: Inhibition of Plasmodium falciparum W2 (drug-resistant) proliferation in erythrocyte-based infection assay. The class given is functional, organism-based. The settings on record: Plasmodium falciparum, W2; read-out: EC50.
Data set [3] relates to Plasmodium falciparum. Description: NOVARTIS: Inhibition of Plasmodium falciparum 3D7 (drug-susceptible) proliferation in erythrocyte-based infection assay. The class given is functional, organism-based. The conditions noted are these: Plasmodium falciparum, 3D7.

In data set [1], `CCN1CCCC1CNc1[nH]cnc2c3cc(F)ccc3nc1-2` (configuration not stated) yielded a 50% cytotoxic concentration (CC50) of 22400 nM. For the same compound, the EC50 in data set [2] turned out to be 1260 nM; in data set [3], 808 nM.
As to `OC(CN1CCN(CC(O)Cn2c3ccccc3c3cc(Br)ccc32)CC1)Cn1c2ccccc2c2ccccc21` (configuration not stated), the CC50 in data set [1] is over 10000 nM. The values for the EC50 in data set [2] and in data set [3] were 576 nM and over 1260 nM, respectively.
`Cc1ccc(C2(C)CC(C)(C)N(C(=O)Cc3ccccc3)c3ccc(C(c4ccccc4)(c4ccccc4)c4ccccc4)cc32)cc1` (configuration not stated): the CC50 in data set [1] was over 100000 nM. Also, the results for the EC50 in data set [2] and in data set [3] were 5680 nM and 4790 nM, respectively.
The like results for `CCCCc1ccc(C(=O)N(CCc2ccccc2)C(CC)c2nc3ccccc3c(=O)n2-c2ccccc2OC)cc1` (configuration not stated) were, in that order, over 6270 nM, 354 nM and 311 nM.
In data set [1], `CCCCCc1ccc(C(=O)N(CCCC(C)Nc2cc(OC)cc3cccnc23)Cc2ccc(OC)c(OC)c2)cc1` (configuration not stated) displayed a CC50 of 5030 nM. Further, the EC50 in data set [2] came out at 284 nM; in data set [3] it was 514 nM.
Taken in the same sequence, the figures for `Oc1ccc(Nc2nc(NCc3ccco3)c3ccccc3n2)cc1` were 19700 nM, 1110 nM and 86.1 nM.
The like results for `CCN1/C(=C/C=C/c2oc3ccc4ccccc4c3[n+]2CC)Oc2ccc3ccccc3c21` were, in that order, over 10000 nM, 578 nM and over 1250 nM.
`C=C[C@H]1CN2CC[C@H]1C[C@H]2[C@H](OC(=O)c1ccc(Cl)cc1)c1ccnc2ccccc12` displayed a CC50 in data set [1] of over 10000 nM. The EC50 is 564 nM in data set [2] and 412 nM in data set [3].
Taken in the same sequence, the figures for `CCN1CCC(N2C[C@H](n3cc(C(=O)OC)nn3)C[C@H]2C(=O)NCc2cccc(C(F)(F)F)c2)CC1` were over 10000 nM, over 563 nM and over 1250 nM.
The like results for `CCC(=O)N1CCc2cc(Br)cc(S(=O)(=O)N3CCCCC3CC)c21` (configuration not stated) were, in that order, over 100000 nM, 5700 nM and 9980 nM.
With `CCC1=NN2C(=N)/C(=C/c3cn(CCOc4cccc(C)c4)c4ccccc34)C(=O)N=C2S1`, in data set [1], the CC50 is over 10000 nM. Besides, the EC50 is over 572 nM in data set [2] and over 1250 nM in data set [3].
Taken in the same sequence, the figures for `Cc1cc2c(cc1S(=O)(=O)N(C)C1CCCCC1)OCC(=O)N2` were over 10000 nM, over 569 nM and over 1250 nM.
Regarding `OCCN(CCO)CC(O)Cn1c2ccc(Br)cc2c2cc(Br)ccc21` (configuration not stated), the CC50 in data set [1] amounted to 27300 nM. Besides, the EC50 in data set [2] was determined as 1550 nM; in data set [3], 2330 nM.
Taken in the same sequence, the figures for `Cc1ccc(O)c(NC(=O)c2cnn3c(C(F)(F)F)cc(-c4ccc(F)cc4)nc23)c1` were over 100000 nM, 5720 nM and 10500 nM.
Compound `C=CC1CN2CCC1CC2[C@H](O)c1ccnc2ccc(O)cc12` (some centres not stated) yielded a CC50 in data set [1] of over 100000 nM. Moreover, the EC50 came out at 5720 nM in data set [2] and 404 nM in data set [3].
`Nc1nc(NCC2CCC(CNS(=O)(=O)c3cccc4ccccc34)CC2)nc2ccccc12` (configuration not stated) displayed a CC50 in data set [1] of over 10000 nM. The figures for the half-maximal effective concentration (EC50) in data set [2] and in data set [3] were 571 nM and 684 nM, respectively.
Taken in the same sequence, the figures for `CCCCn1c(=N)c(C(=O)NC(C)c2ccccc2)cc2c(=O)n3cccc(C)c3nc21` (configuration not stated) were over 100000 nM, over 5680 nM and 1380 nM.
In turn, `O=C(Cn1c2ccccc2c(=O)c2cc([N+](=O)[O-])ccc21)Nc1ccc(F)c(Cl)c1` yielded a CC50 in data set [1] of over 100000 nM. Further, the EC50 is 5670 nM in data set [2] and over 12500 nM in data set [3].
The like results for `c1ccc(OCCOc2ccc(Nc3c4ccccc4nc4ccccc34)cc2)cc1` were, in that order, 6120 nM, 347 nM and 505 nM.
In data set [1], `CCCN(Cc1cc(OC)c2c(c1)OCO2)CC1CC1` gave a CC50 of over 10000 nM. In addition, the EC50 in data set [2] is 566 nM; in data set [3], over 1720 nM.
The like results for `O=C(NCCCCNc1ccnc2cc(Cl)ccc12)c1ccc([N+](=O)[O-])cc1` were, in that order, over 10000 nM, 565 nM and 486 nM.
Take `CCc1ccc(NC(=O)c2ccc(F)c(S(=O)(=O)N3CCN(C)CC3)c2)cc1`: the CC50 in data set [1] is over 10000 nM. The EC50 in data set [2] is over 584 nM; in data set [3], over 1250 nM.
The like results for `Cc1cc(NS(=O)(=O)c2ccc(N=Cc3ccc(C#N)cc3)cc2)no1` were, in that order, over 10000 nM, over 582 nM and over 1640 nM.
Taken in the same sequence, the figures for `COc1ccc(C(=O)C(C)[n+]2cccc3ccc4cccnc4c32)cc1` (configuration not stated) were over 10000 nM, over 577 nM and 195 nM.
As for `NC(=S)NN=C1c2ccccc2-c2nc3nonc3nc21`, the CC50 in data set [1] was over 10000 nM. The half-maximal effective concentration (EC50) in data set [2] worked out at 582 nM; in data set [3], 1130 nM.
Taken in the same sequence, the figures for `CCCC1(CCC)NC(=S)N(c2ccc(C)c(C)c2)N1` were over 10000 nM, over 576 nM and over 1250 nM.
In data set [1], `O=C(NCCc1nc(-c2cccnc2)n[nH]1)C12CC3CC(CC(C3)C1)C2` registered a CC50 of over 10000 nM. Also, the EC50 is 581 nM in data set [2] and over 1250 nM in data set [3].
Taken in the same sequence, the figures for `CCCCCCC(NC(=O)OCc1ccccc1)S(=O)(=O)c1ccc(C)cc1` (configuration not stated) were over 100000 nM, 5800 nM and over 12500 nM.
Taken in the same sequence, the figures for `NS(=O)(=O)c1ccc(CCNC(=O)/C=C/c2ccc3c(c2)OCO3)cc1` were over 10000 nM, over 583 nM and over 1400 nM.
`CCN(CC)c1ccc(C=C(C#N)c2nc3ccccc3[nH]2)o1` had a CC50 in data set [1] of 46200 nM. Moreover, the EC50 in data set [2] was over 2670 nM; in data set [3], 3350 nM.
Regarding `COc1ccc(N(CC(=O)Nc2cc(OC)ccc2OC)S(=O)(=O)c2ccc(C)cc2)cc1`, the half-maximal cytotoxic concentration (CC50) in data set [1] was over 10000 nM. Besides, the results for the EC50 in data set [2] and in data set [3] were over 583 nM and over 1250 nM, respectively.
Regarding `COc1ccc(OCC(O)CNC2CCN(CC(O)COc3ccc(Cl)c(Cl)c3)CC2)cc1` (configuration not stated), in data set [1], the 50% cytotoxic concentration (CC50) stood at 9140 nM. Also, the concentration giving a half-maximal response (EC50) in data set [2] came to 524 nM; in data set [3], 328 nM.
Taken in the same sequence, the figures for `c1ccc(-c2ccccc2OCCNCCN2CCOCC2)cc1` were 46800 nM, 2700 nM and 10100 nM.
The like results for `O=C(NC1CCCCC1)c1noc2c1CCCCC2` were, in that order, over 100000 nM, 5670 nM and over 12500 nM.
For the compound `O=C(/C=C/c1ccc(-c2cccc([N+](=O)[O-])c2)o1)Nc1nccs1`, the CC50 in data set [1] is over 10000 nM. The EC50 in data set [2] was over 570 nM; in data set [3], over 1250 nM.
Compound `Nc1cc(-c2cccs2)n[nH]1` came in with a CC50 in data set [1] of over 100000 nM. Moreover, the EC50 in data set [2] was over 5810 nM; in data set [3], over 11200 nM.
In turn, `CCOc1cc(S(=O)(=O)N2CCCC3(CCCCC3)C2)c(OCC)cc1-n1cnnn1` showed a CC50 in data set [1] of over 10000 nM. Besides, the EC50 in data set [2] was over 563 nM; in data set [3] it was over 1250 nM.
The like results for `CCCN(C(=O)Nc1c(C(C)C)cccc1C(C)C)C(CC)c1nc2ccccc2c(=O)n1-c1cccc(C)c1` (configuration not stated) were, in that order, 80900 nM, 4580 nM and 3170 nM.
Taken in the same sequence, the figures for `CCN1CCN(CCN2C(=O)C3C(C(=O)Nc4ccc(C(C)C)cc4)C4C=CC3(O4)C2C(=O)NC2CCCCC2)CC1` (configuration not stated) were over 100000 nM, 5820 nM and over 12500 nM.

The CC50 is the concentration that lowers cell viability or growth by half. A higher CC50 goes with lower toxicity to the cells. What is called EC50 is the concentration that produces a half-maximal response.

These data come from ChEMBL document CHEMBL1156829 (Proc Natl Acad Sci U S A, 2008).
